Results as given in US20170055529A1, “BROAD SPECTRUM WEED CONTROL IN FLOODED RICE BY IN-WATER APPLICATION OF AUXIN HERBICIDES” (priority 2015, published 2017).
Marks after values point to notes of the source that are not given here.

Columns and labels:
Type in all cases: in vivo
[1] = system: 'M202' rice (Japonica rice variety from California, USA); experiment: Greenhouse in-water application, transplanted paddy rice (small pots), crop injury
Excerpt: (§1) Weed seeds of the desired test plant species were planted in puddled soil (mud) prepared by mixing a non-sterilized mineral soil (approximately 50 percent silt, 26 percent clay, and 24 percent sand, with a pH of about 7.6 and an organic matter content of about 2.9 percent) and water at a 1:1 volumetric ratio. The prepared mud was dispensed in 365 milliliter (mL) aliquots into 16-ounce (oz.) non-perforated plastic pots with a surface area of 86.59 square centimeters (cm^2) leaving a headspace of 3 centimeters (cm) in each pot. Mud was allowed to dry overnight prior to planting or transplanting. Rice seeds were planted in Sun Gro® MetroMix® 360 planting mixture, which typically has a pH of 6.0 to 6.8 and an organic matter content of about 30 percent, in plastic plug trays. Seedlings at the second or third leaf stage of growth were transplanted into 840 mL of mud contained in 32-oz. non-perforated plastic pots with a surface area of 86.59 cm^2 four days prior to herbicide application. The paddy was created by filling the headspace of the pots with 2.5 to 3 cm of water. When required to ensure good germination and healthy plants, a fungicide treatment and/or other chemical or physical treatment was applied. The plants were grown for 4-22 days (d) in a greenhouse with an approximate 14-hour (h) photoperiod which was maintained at about 29° C. during the day and 26° C. during the night. Nutrients were added as Osmocote® (19:6:12, Nitrogen:Phosphorus:Potassium (N:P:K)+minor nutrients) at 2 g per 16 oz. pot and 4 g per 32 oz. pot. Water was added on a regular basis to maintain the paddy flood, and supplemental lighting was provided with overhead metal halide 1000-Watt lamps as necessary. The plants were used for testing when they reached the second or third true leaf stage.
(§2) Triclopyr triethylammonium (as Grandstand® R, 359.5 grams acid equivalent per liter (g ae/L)); fluroxypyr methylheptyl ester (meptyl or MHE, as Starane™, 179.8 g ae/L); 2,4-dichlorophenoxyacetic acid dimethylammonium (2,4-D DMA, as Weedar® 64, 455.4 g ae/L); and penoxsulam (as Grasp® SC, 239.7 grams active ingredient per liter (g ai/L) were used. Measured amounts of formulated compounds were placed in individual 120 mL glass vials and were dissolved in 40 mL of an aqueous mixture containing 1.25% volume per volume (v/v) Agri-Dex® crop oil concentrate. Generally, multiple concentrations were tested utilizing the same stock solution. Applications were made by injecting an appropriate amount of the application solution into the aqueous layer of the paddy. Control plants were treated in the same manner with the solvent blank.
(§3) The treated plants and control plants were placed in a greenhouse as described above and water was added as needed to maintain a paddy flood. After approximately 3 weeks the condition of the test plants, compared with that of the untreated plants, was determined visually and scored on a scale of 0 to 100 percent where 0 corresponds to no injury or growth reduction and 100 corresponds to complete kill.

[2] = system: 'Wells' rice (Medium grain rice variety from Arkansas, USA); experiment: as above
Excerpt: as §1, §2, §3

[3] = system: ECHCG = Echinochloa crus-galli (barnyardgrass); experiment: Greenhouse in-water herbicidal activity (large pots); conditions: 744 h, read-out: Percent (%) Visual Injury Ratings - 31 DAA, ECHCG
Method: (§4) Weed seeds or nutlets of the desired test plant species were planted in puddled soil (mud) prepared by mixing shredded topsoil and deionized (DI) water in a 1:1 ratio in a standard cement mixer. […] Osmocote® (17:6:10 N:P:K; 0.5 teaspoon) was added to the bottom of a container. The container is a high-density polyethylene (HDPE) round container (4.163 L (1.1 gallon), 15 cm high×20.55 cm diameter; for treatment purposes, the surface area is calculated as 331 cm^2 with 1 hectare equivalent to 10^8 cm^2). The mud mixture (2,750 mL) was added to the container filling it half full. Stakes were placed horizontally in each container to create separate areas for which to plant each different plant species. Water was added on a regular basis to maintain the paddy flood, and supplemental lighting was provided with overhead metal halide 1000-Watt lamps as necessary.
(§5) Once the plants had reached the proper size (the growth stage of the various species ranged from 2 to 4 leaves), the containers were flooded with city water to a depth of 3 cm submerging the plants 80-100%. The outside of each container was measured and marked at a 3-cm line with a black permanent marker to eliminate water level variability during the trial period. Water was added daily to maintain this water depth. Triclopyr triethylammonium (as Garlon® 3 A, 360 g ae/L); triclopyr butoxyethyl ester (as Garlon® 4, 480 g ae/L); fluroxypyr methylheptyl ester (meptyl or MHE, as Starane® Ultra, 333 g ae/L); fluroxypyr acid (850 grams acid equivalent per kilogram (g ae/kg)); 2,4-dichlorophenoxyacetic acid dimethylammonium (2,4-D DMA, as Weedar® 64 EC, 456 g ae/L); 2,4-dichlorophenoxyacetic acid 2-ethylhexyl ester (2,4-D 2-EHE, as Agri Star®, 456 g ae/L); clopyralid olamine (as Stinger®, 360 g ae/L); and penoxsulam (as Grasp® SC, 240 g ai/L) were used. Each herbicide treatment for each pot was mixed in water (80 mL) and applied directly into the paddy water at rates adjusted to the surface area. The dry formulations were pre-weighed based on the rate of the active ingredient to be applied on a per unit area basis, placed in 30 mL vials, and capped. Granules were spread onto the top of the water in each pot and dispersed throughout the water. Treatments were replicated 3 times.
(§6) The treated plants and control plants were placed in a greenhouse as described above and water was added as needed to maintain a flood depth of 3 cm. […]

[4] = system: CYPDI = Cyperus difformis (small-flower flatsedge); experiment: as above; conditions: for Percent (%) Visual Injury Ratings - 16 DAA, CYPDI / Percent (%) Visual Injury Ratings - 22 DAA, CYPDI: greenhouse large pots; for pest or weed control at 280 g/ha / pest or weed control at 560 g/ha / pest or weed control at 1120 g/ha: Cyperus difformis, 744 h, read-out: Percent (%) Visual Injury Ratings - 31 DAA, CYPDI
Method: as §4, §5, §6

In the case of CCCCCCC(C)OC(=O)COc1nc(F)c(Cl)c(N)c1Cl (stereo not drawn) [Fluroxypyr-meptyl (Starane ® Ultra), 1-methylheptyl 2-[(4-amino-3,5-dichloro-6-fluoro-2-pyridinyl)oxy]acetate], the “Percent (%) Visual Injury Ratings - 20 DAA, M202′ Rice” value ([1]; 280 g ae/ha in-water) is reported as 0%, the “Percent (%) Visual Injury Ratings - 20 DAA, M202′ Rice” value ([1]; 560 g ae/ha in-water) is reported as 0% and the “Percent (%) Visual Injury Ratings - 20 DAA, M202′ Rice” value ([1]; 1120 g ae/ha in-water) is reported as 35%. The “Percent (%) Visual Injury Ratings - 20 DAA, Wells′ Rice” value ([2]; 280 g ae/ha in-water) was 0%, the “Percent (%) Visual Injury Ratings - 20 DAA, Wells′ Rice” value ([2]; 560 g ae/ha in-water) was 0% and the “Percent (%) Visual Injury Ratings - 20 DAA, Wells′ Rice” value ([2]; 1120 g ae/ha in-water) was 10%. The pest or weed control at 280 g/ha [3] was 45%, the pest or weed control at 560 g/ha [3] was 75% and the pest or weed control at 1120 g/ha [3] was 99%. For the same compound, the “Percent (%) Visual Injury Ratings - 16 DAA, CYPDI” value ([4]; 35 g ae/ha) was 8%, the “Percent (%) Visual Injury Ratings - 22 DAA, CYPDI” value ([4]; 35 g ae/ha) was 28% and the “Percent (%) Visual Injury Ratings - 16 DAA, CYPDI” value ([4]; 70 g ae/ha) was 13%. The “Percent (%) Visual Injury Ratings - 22 DAA, CYPDI” value ([4]; 70 g ae/ha) was 28%, the “Percent (%) Visual Injury Ratings - 16 DAA, CYPDI” value ([4]; 140 g ae/ha) was 20% and the “Percent (%) Visual Injury Ratings - 22 DAA, CYPDI” value ([4]; 140 g ae/ha) was 79%. For the same compound, the “Percent (%) Visual Injury Ratings - 16 DAA, CYPDI” value ([4]; 280 g ae/ha) was 33%, the “Percent (%) Visual Injury Ratings - 22 DAA, CYPDI” value ([4]; 280 g ae/ha) was 89% and the pest or weed control at 280 g/ha [4] was 100%. For the same compound, the pest or weed control at 560 g/ha [4] was 100% and the pest or weed control at 1120 g/ha [4] was 100%.

With O=C(O)COc1ccc(Cl)cc1Cl [2,4-D DMA (Weedar ® 64), dimethylammonium 2-(2,4-dichlorophenoxy)acetate] the “Percent (%) Visual Injury Ratings - 20 DAA, M202′ Rice” value ([1]; 280 g ae/ha in-water) was 0%, the “Percent (%) Visual Injury Ratings - 20 DAA, M202′ Rice” value ([1]; 560 g ae/ha in-water) was 0% and the “Percent (%) Visual Injury Ratings - 20 DAA, M202′ Rice” value ([1]; 1120 g ae/ha in-water) was 10* %. For the same compound, the “Percent (%) Visual Injury Ratings - 20 DAA, Wells′ Rice” value ([2]; 280 g ae/ha in-water) was 0%, the “Percent (%) Visual Injury Ratings - 20 DAA, Wells′ Rice” value ([2]; 560 g ae/ha in-water) was 0% and the “Percent (%) Visual Injury Ratings - 20 DAA, Wells′ Rice” value ([2]; 1120 g ae/ha in-water) was 0%. For the same compound, the pest or weed control at 280 g/ha [3] was 30%, the pest or weed control at 560 g/ha [3] was 38% and the pest or weed control at 1120 g/ha [3] was 65%. The “Percent (%) Visual Injury Ratings - 16 DAA, CYPDI” value ([4]; 35 g ae/ha) was 99%, the “Percent (%) Visual Injury Ratings - 22 DAA, CYPDI” value ([4]; 35 g ae/ha) was 89% and the “Percent (%) Visual Injury Ratings - 16 DAA, CYPDI” value ([4]; 70 g ae/ha) was 100%. The “Percent (%) Visual Injury Ratings - 22 DAA, CYPDI” value ([4]; 70 g ae/ha) was 76%, the “Percent (%) Visual Injury Ratings - 16 DAA, CYPDI” value ([4]; 140 g ae/ha) was 98% and the “Percent (%) Visual Injury Ratings - 22 DAA, CYPDI” value ([4]; 140 g ae/ha) was 92%. The “Percent (%) Visual Injury Ratings - 16 DAA, CYPDI” value ([4]; 280 g ae/ha) was 97%, the “Percent (%) Visual Injury Ratings - 22 DAA, CYPDI” value ([4]; 280 g ae/ha) was 98% and the pest or weed control at 280 g/ha [4] was 100%. For the same compound, the pest or weed control at 560 g/ha [4] was 100% and the pest or weed control at 1120 g/ha [4] was 100%.

For O=C(O)COc1nc(Cl)c(Cl)cc1Cl [Triclopyr triethanolamine (Garlon ® 3A), triethylammonium 2[(3,5,6-trichloro-2-pyridinyl)oxy]acetate], the “Percent (%) Visual Injury Ratings - 20 DAA, M202′ Rice” value ([1]; 280 g ae/ha in-water) was 0%, the “Percent (%) Visual Injury Ratings - 20 DAA, M202′ Rice” value ([1]; 560 g ae/ha in-water) was 0% and the “Percent (%) Visual Injury Ratings - 20 DAA, M202′ Rice” value ([1]; 1120 g ae/ha in-water) was 20%. For the same compound, the “Percent (%) Visual Injury Ratings - 20 DAA, Wells′ Rice” value ([2]; 280 g ae/ha in-water) was 0%, the “Percent (%) Visual Injury Ratings - 20 DAA, Wells′ Rice” value ([2]; 560 g ae/ha in-water) was 0% and the “Percent (%) Visual Injury Ratings - 20 DAA, Wells′ Rice” value ([2]; 1120 g ae/ha in-water) was 10%. It also gave a pest or weed control at 280 g/ha [3] of 65%, a pest or weed control at 560 g/ha [3] of 75% and a pest or weed control at 1120 g/ha [3] of 89%. The “Percent (%) Visual Injury Ratings - 16 DAA, CYPDI” value ([4]; 35 g ae/ha) was 100%, the “Percent (%) Visual Injury Ratings - 22 DAA, CYPDI” value ([4]; 35 g ae/ha) was 100% and the “Percent (%) Visual Injury Ratings - 16 DAA, CYPDI” value ([4]; 70 g ae/ha) was 98%. The “Percent (%) Visual Injury Ratings - 22 DAA, CYPDI” value ([4]; 70 g ae/ha) was 100%, the “Percent (%) Visual Injury Ratings - 16 DAA, CYPDI” value ([4]; 140 g ae/ha) was 97% and the “Percent (%) Visual Injury Ratings - 22 DAA, CYPDI” value ([4]; 140 g ae/ha) was 100%. The “Percent (%) Visual Injury Ratings - 16 DAA, CYPDI” value ([4]; 280 g ae/ha) was 100%, the “Percent (%) Visual Injury Ratings - 22 DAA, CYPDI” value ([4]; 280 g ae/ha) was 100% and the pest or weed control at 280 g/ha [4] was 97%. The pest or weed control at 560 g/ha [4] was 99% and the pest or weed control at 1120 g/ha [4] was 100%.
